Measurements from PubChem BioAssay AID1259407 (Chemical Carcinogenesis Research Information System (CCRIS), 2018).
The source made the active and inactive calls. How the calls were made is not given here.

Tested on: CCRIS mutagenicity, Ames/micronucleus/aberration tests
Experiment: CCRIS mutagenicity studies
[1] = Test System: AMES SALMONELLA TYPHIMURIUM, Strain/Indicator: TA98, Metabolic Activation: NONE, Method: PREINCUBATION
[2] = Test System: AMES SALMONELLA TYPHIMURIUM, Strain/Indicator: TA100, Metabolic Activation: NONE, Method: PREINCUBATION
[3] = Test System: AMES SALMONELLA TYPHIMURIUM, Strain/Indicator: TA100, Metabolic Activation: NONE, Method: STANDARD PLATE

SMILES: CC(C)(C#N)N=NC(C)(C)C#N
- mutagenic call (Test System: AMES SALMONELLA TYPHIMURIUM, Strain/Indicator: TA98, Metabolic Activation: HAMSTER, LIVER, S-9, AROCLOR 1254, Method: PREINCUBATION): inactive; negative
- mutagenic call [1]: inactive; negative
- mutagenic call (Test System: AMES SALMONELLA TYPHIMURIUM, Strain/Indicator: TA98, Metabolic Activation: RAT LIVER S-9, PHENOBARBITAL AND BETA-NAPHTHOFLAVONE, Method: PREINCUBATION): inactive; negative
- mutagenic call (Test System: AMES SALMONELLA TYPHIMURIUM, Strain/Indicator: TA98, Metabolic Activation: RAT, LIVER, S-9, AROCLOR 1254, Method: PREINCUBATION): inactive; negative
- mutagenic call (Test System: AMES SALMONELLA TYPHIMURIUM, Strain/Indicator: TA100, Metabolic Activation: HAMSTER, LIVER, S-9, AROCLOR 1254, Method: PREINCUBATION): inactive; negative
- mutagenic call [2]: inactive; negative
- mutagenic call (Test System: AMES SALMONELLA TYPHIMURIUM, Strain/Indicator: TA100, Metabolic Activation: RAT LIVER S-9, PHENOBARBITAL AND BETA-NAPHTHOFLAVONE, Method: PREINCUBATION): inactive; negative
- mutagenic call (Test System: AMES SALMONELLA TYPHIMURIUM, Strain/Indicator: TA100, Metabolic Activation: RAT, LIVER, S-9, AROCLOR 1254, Method: PREINCUBATION): inactive; negative
- mutagenic call (Test System: AMES SALMONELLA TYPHIMURIUM, Strain/Indicator: TA1535, Metabolic Activation: HAMSTER, LIVER, S-9, AROCLOR 1254, Method: PREINCUBATION): inactive; negative
- mutagenic call (Test System: AMES SALMONELLA TYPHIMURIUM, Strain/Indicator: TA1535, Metabolic Activation: NONE, Method: PREINCUBATION): inactive; negative
- mutagenic call (Test System: AMES SALMONELLA TYPHIMURIUM, Strain/Indicator: TA1535, Metabolic Activation: RAT LIVER S-9, PHENOBARBITAL AND BETA-NAPHTHOFLAVONE, Method: PREINCUBATION): inactive; negative
- mutagenic call (Test System: AMES SALMONELLA TYPHIMURIUM, Strain/Indicator: TA1535, Metabolic Activation: RAT, LIVER, S-9, AROCLOR 1254, Method: PREINCUBATION): inactive; negative
- mutagenic call (Test System: AMES SALMONELLA TYPHIMURIUM, Strain/Indicator: TA1537, Metabolic Activation: HAMSTER, LIVER, S-9, AROCLOR 1254, Method: PREINCUBATION): inactive; negative
- mutagenic call (Test System: AMES SALMONELLA TYPHIMURIUM, Strain/Indicator: TA1537, Metabolic Activation: NONE, Method: PREINCUBATION): inactive; negative
- mutagenic call (Test System: AMES SALMONELLA TYPHIMURIUM, Strain/Indicator: TA1537, Metabolic Activation: RAT LIVER S-9, PHENOBARBITAL AND BETA-NAPHTHOFLAVONE, Method: PREINCUBATION): inactive; negative
- mutagenic call (Test System: AMES SALMONELLA TYPHIMURIUM, Strain/Indicator: TA1537, Metabolic Activation: RAT, LIVER, S-9, AROCLOR 1254, Method: PREINCUBATION): inactive; negative
- mutagenic call (Test System: AMES SALMONELLA TYPHIMURIUM, Strain/Indicator: TA1538, Metabolic Activation: HAMSTER, LIVER, S-9, AROCLOR 1254, Method: PREINCUBATION): inactive; negative
- mutagenic call (Test System: AMES SALMONELLA TYPHIMURIUM, Strain/Indicator: TA1538, Metabolic Activation: NONE, Method: PREINCUBATION): inactive; negative
- mutagenic call (Test System: AMES SALMONELLA TYPHIMURIUM, Strain/Indicator: TA1538, Metabolic Activation: RAT LIVER S-9, PHENOBARBITAL AND BETA-NAPHTHOFLAVONE, Method: PREINCUBATION): inactive; negative
- mutagenic call (Test System: AMES SALMONELLA TYPHIMURIUM, Strain/Indicator: TA1538, Metabolic Activation: RAT, LIVER, S-9, AROCLOR 1254, Method: PREINCUBATION): inactive; negative
- mutagenic call (Test System: E.COLI, Strain/Indicator: WP2UVRA, Metabolic Activation: NONE, Method: PREINCUBATION): inactive; negative
- mutagenic call (Test System: E.COLI, Strain/Indicator: WP2UVRA, Metabolic Activation: RAT LIVER S-9, PHENOBARBITAL AND BETA-NAPHTHOFLAVONE, Method: PREINCUBATION): inactive; negative
- mutagenic call (Test System: MOUSE LYMPHOMA, Strain/Indicator: L5178Y (TK+/TK-), Metabolic Activation: NONE, Method: SUSPENSION/PLATE): inactive; negative. reevaluation of results: negative
- mutagenic call (Test System: MOUSE LYMPHOMA, Strain/Indicator: L5178Y (TK+/TK-), Metabolic Activation: RAT, LIVER, S-9, AROCLOR 1254, Method: SUSPENSION/PLATE): inactive; negative. reevaluation of results: negative

SMILES: c1ccc2c(c1)-c1ccc3ccccc3c1C1OC21 (stereo unspecified)
- mutagenic call [1]: active; positive
- mutagenic call (Test System: AMES SALMONELLA TYPHIMURIUM, Strain/Indicator: TA98, Metabolic Activation: NONE, Method: PREINCUBATION (KCL-CONTAINING MEDIUM)): active; positive
- mutagenic call (Test System: AMES SALMONELLA TYPHIMURIUM, Strain/Indicator: TA98, Metabolic Activation: NONE, Method: PREINCUBATION (KCL-FREE MEDIUM)): active; positive
- mutagenic call [2]: active; positive
- mutagenic call (Test System: AMES SALMONELLA TYPHIMURIUM, Strain/Indicator: TA100, Metabolic Activation: NONE, Method: PREINCUBATION (KCL-CONTAINING OR KCL-FREE MEDIA)): active; positive
- mutagenic call [3]: active; positive
- mutagenic call (Test System: AMES SALMONELLA TYPHIMURIUM, Strain/Indicator: TA100, Metabolic Activation: RAT, LIVER, S-9, AROCLOR 1254, Method: STANDARD PLATE): inactive; negative
- mutagenic call (Test System: AMES SALMONELLA TYPHIMURIUM, Strain/Indicator: TA1537, Metabolic Activation: NONE, Method: STANDARD PLATE): active; positive
- mutagenic call (Test System: CHINESE HAMSTER V-79, Strain/Indicator: V-79/6-THIOGUANINE, Metabolic Activation: NONE, Method: STANDARD PLATE): active; positive

SMILES: CC1(C)[C@H](C=C(Cl)Cl)[C@H]1C(=O)OCc1cccc(Oc2ccccc2)c1
- mutagenic call (Test System: AMES SALMONELLA TYPHIMURIUM, Strain/Indicator: TA97, Metabolic Activation: NONE, Method: STANDARD PLATE): inactive; negative
- mutagenic call (Test System: AMES SALMONELLA TYPHIMURIUM, Strain/Indicator: TA97, Metabolic Activation: RAT, LIVER, S-9, PHENOBARBITONE, Method: STANDARD PLATE): inactive; negative
- mutagenic call (Test System: AMES SALMONELLA TYPHIMURIUM, Strain/Indicator: TA98, Metabolic Activation: NONE, Method: STANDARD PLATE): inactive; negative
- mutagenic call (Test System: AMES SALMONELLA TYPHIMURIUM, Strain/Indicator: TA98, Metabolic Activation: RAT, LIVER, S-9, PHENOBARBITONE, Method: STANDARD PLATE): inactive; negative
- mutagenic call [3]: inactive; negative
- mutagenic call (Test System: AMES SALMONELLA TYPHIMURIUM, Strain/Indicator: TA100, Metabolic Activation: RAT, LIVER, S-9, PHENOBARBITONE, Method: STANDARD PLATE): inactive; negative
- mutagenic call (Test System: AMES SALMONELLA TYPHIMURIUM, Strain/Indicator: TA104, Metabolic Activation: NONE, Method: STANDARD PLATE): inactive; negative
- mutagenic call (Test System: AMES SALMONELLA TYPHIMURIUM, Strain/Indicator: TA104, Metabolic Activation: RAT, LIVER, S-9, PHENOBARBITONE, Method: STANDARD PLATE): inactive; negative
